Our source for the IC50 values is patent US20240247035A1, “STAPLED ANTIMICROBIAL PEPTIDES (STAMPS) AND USES THEREOF” (Lytica Therapeutics, Inc., priority 2021, published 2024).

SMILES strings stand for the structures. In brackets after ≈: the same amount, converted by molar mass. Bridge positions count the residues as written; N and C are the ends. Square brackets hold non-standard residues; d marks the D form. Peptide text beside a SMILES is read from it. Phe(4-tBu) = CC(C)(C)c1ccc(C[C@H](N)C(=O)O)cc1; S5 = C=CCCC[C@](C)(N)C(=O)O; Dab = NCC[C@H](N)C(=O)O

The nature of data set [1]: 90 minute cytotoxicity assay (LDH release), renal toxicity. The format is cell-based. To be noted: human. Here is the method:
(§1) Cell culture: RPTEC were maintained in MEM media supplemented with growth factors. HEPG2 cell line was maintained in Eagle's Minimum Essential Medium (EMEM) supplemented with fetal bovine serum to a final concentration of 10%.
90 minute cytotoxicity assay: Cells were plated in a 96-well format, and after overnight incubation, media was replaced with fresh media. Serial dilutions of StAMPs from a 5 mg/mL water stock, or vehicle, were added to the cells in a final volume of 100 μl. After incubating at 37° C. for 90 min, 50 μl of cell culture media was transferred to a clear 96-well plate, incubated with 50 μl of lactate dehydrogenase (LDH) assay reagent for 10 min, and absorbance measured at 490 nm on a microplate reader.
(§2) Renal toxicity was measured after 90 minutes of incubation, while liver toxicity was measured after 48 hours of incubation with StAMPs. N/A=not tested.
In general terms: Release of lactate dehydrogenase indicates damage to the cell membrane.

Data set [2] is described as follows: 48 hours cytotoxicity assay (CellTiter-Glo), liver toxicity. The format is cell-based. To be noted: human. How it is done:
as §1
48 hours cytotoxicity assay: Cells were plated in a 96-well format, and after 4 hour incubation to allow attachment, serial dilutions of StAMPs from a 5 mg/mL water stock, or vehicle, were then added to the cells in a final volume of 100 μl. After incubating at 37° C. for 48 hours, 100 μl of CellTiter-Glo® reagent was added to the cells, and the plates were incubated 10 minutes at room temperature. Luminescence was then measured on a microplate reader.
as §2
For orientation: Cellular ATP, detected with luciferase, serves as a proxy for viable cell number.

In turn, `CC[C@H](C)[C@H](NC(=O)[C@H](CCN)NC(=O)[C@H](CCN)NC(=O)CNC(=O)[C@H](CCN)NC(=O)[C@]1(C)CCCC=CCCC[C@](C)(NC(=O)CN)C(=O)N[C@@H](Cc2ccccc2)C(=O)N[C@@H](CO)C(=O)N[C@@H](CCN)C(=O)N1)C(=O)N[C@@H](CCN)C(=O)N[C@@H](CC(N)=O)C(=O)N[C@@H](CC(C)C)C(=O)N[C@@]1(C)CCCC=CCCC[C@@](C)(C(=O)N[C@@H](CCN)C(=O)NCC(N)=O)NC(=O)CNC(=O)[C@H](CO)NC(=O)[C@H]([C@@H](C)CC)NC1=O` [compound 14] (H-G[S5]FS[Dab][S5][Dab]G[Dab][Dab]I[Dab]NL[S5]ISG[S5][Dab]G-NH2; staple 2-6, 15-19) yielded an IC50 at 90 min in data set [1] of 40 µg/mL (≈ 18.9 µM). The molecule further registered an IC50 at 48 hours in data set [2] of approximately 150 µg/mL (≈ 70.7 µM).

`CC[C@H](C)[C@H](NC(=O)[C@H](CCCCN)NC(=O)[C@H](CCCCN)NC(=O)CNC(=O)[C@H](CCCCN)NC(=O)[C@]1(C)CCCC=CCCC[C@](C)(NC(=O)CN)C(=O)N[C@@H](CCCCN)C(=O)N[C@@H](CO)C(=O)N[C@@H](CCCCN)C(=O)N1)C(=O)N[C@@H](CCCCN)C(=O)N[C@@H](CC(N)=O)C(=O)N[C@@H](CC(C)C)C(=O)N[C@@]1(C)CCCC=CCCC[C@@](C)(C(=O)N[C@@H](CCCCN)C(=O)N[C@@H](CC(N)=O)C(N)=O)NC(=O)[C@H](C(C)C)NC(=O)[C@H](CO)NC(=O)[C@H]([C@@H](C)CC)NC1=O` [compound 21] (H-G[S5]KSK[S5]KGKKIKNL[S5]ISV[S5]KN-NH2; staple 2-6, 15-19): in data set [1], the IC50 at 90 min turned out to be 54 µg/mL (≈ 22.8 µM). The IC50 at 48 hours in data set [2] came out at 32 µg/mL (≈ 13.5 µM).

In turn, `CC[C@H](C)[C@H](NC(=O)[C@H](CCCCN)NC(=O)[C@H](CCCCN)NC(=O)CNC(=O)[C@H](CCCCN)NC(=O)[C@]1(C)CCCC=CCCC[C@](C)(NC(=O)CN)C(=O)N[C@@H](Cc2ccccc2)C(=O)N[C@@H](CO)C(=O)N[C@@H](CCCCN)C(=O)N1)C(=O)N[C@@H](CCCCN)C(=O)N[C@@H](CC(N)=O)C(=O)N[C@@H](CC(C)C)C(=O)N[C@@]1(C)CCCC=CCCC[C@@](C)(C(=O)N[C@@H](CCCCN)C(=O)NCC(N)=O)NC(=O)CNC(=O)[C@H](CCCCN)NC(=O)[C@H]([C@@H](C)CC)NC1=O` [compound 32] (H-G[S5]FSK[S5]KGKKIKNL[S5]IKG[S5]KG-NH2; staple 2-6, 15-19) gave an IC50 at 90 min in data set [1] of 33 µg/mL (≈ 14.2 µM). In data set [2], this molecule had an IC50 at 48 hours of 25 µg/mL (≈ 10.7 µM).

In data set [1], `CC[C@H](C)[C@H](NC(=O)[C@H](CCCCN)NC(=O)[C@H](CCCCN)NC(=O)CNC(=O)[C@H](CCCCN)NC(=O)[C@]1(C)CCCC=CCCC[C@](C)(NC(=O)CN)C(=O)N[C@@H](CCCCN)C(=O)N[C@@H](CO)C(=O)N[C@@H](CCCCN)C(=O)N1)C(=O)N[C@@H](CCCCN)C(=O)N[C@@H](CC(N)=O)C(=O)N[C@@H](Cc1ccc(C(C)(C)C)cc1)C(=O)N[C@@]1(C)CCCC=CCCC[C@@](C)(C(=O)N[C@@H](CCCCN)C(=O)N[C@@H](CC(N)=O)C(N)=O)NC(=O)CNC(=O)[C@H](CO)NC(=O)[C@H]([C@@H](C)CC)NC1=O` [compound 19] (H-G[S5]KSK[S5]KGKKIKN[Phe(4-tBu)][S5]ISG[S5]KN-NH2; staple 2-6, 15-19) showed an IC50 at 90 min of 68 µg/mL (≈ 28.1 µM). For the same molecule, half-maximal inhibition in data set [2] (IC50 at 48 hours) required 23 µg/mL (≈ 9.51 µM).

In the case of `CC[C@H](C)[C@@H]1NC(=O)[C@@](C)(NC(=O)[C@H](CCCCN)NC(=O)[C@H](CCCCN)NC(=O)CNC(=O)[C@H](CCCCN)NC(=O)[C@]2(C)CCCC=CCCC[C@](C)(NC(=O)CN)C(=O)N[C@@H](Cc3ccccc3)C(=O)N[C@@H](CO)C(=O)N[C@@H](CCCCN)C(=O)N2)CCCC=CCCC[C@@](C)(C(=O)N[C@@H](CCCCN)C(=O)NCC(N)=O)NC(=O)CNC(=O)[C@H](CO)NC1=O` [compound 42] (H-G[S5]FSK[S5]KGKK[S5]ISG[S5]KG-NH2; staple 2-6, 11-15), the IC50 at 90 min in data set [1] is more than 200 µg/mL. The same molecule returned an IC50 at 48 hours in data set [2] of more than 200 µg/mL.

The molecule `CC[C@H](C)[C@H](NC(=O)[C@H](CCCCN)NC(=O)[C@H](CCCCN)NC(=O)CNC(=O)[C@H](CCCCN)NC(=O)[C@]1(C)CCCC=CCCC[C@](C)(NC(=O)CN)C(=O)N[C@@H](Cc2ccccc2)C(=O)N[C@@H](CO)C(=O)N[C@@H](CCCCN)C(=O)N1)C(=O)N[C@@H](CCCCN)C(=O)N[C@@H](CC(N)=O)C(=O)N[C@@H](CC(C)C)C(=O)N[C@@H](CC(C)C)C(=O)N[C@@]1(C)CCCC=CCCC[C@@](C)(C(=O)N[C@@H](CCCCN)C(=O)NCC(=O)NCC(=O)N[C@@H](CCC(=O)O)C(N)=O)NC(=O)[C@H](CC(C)C)NC(=O)CNC(=O)[C@H](CO)NC1=O` [compound 39] (H-G[S5]FSK[S5]KGKKIKNLL[S5]SGL[S5]KGGE-NH2; staple 2-6, 16-20) yielded an IC50 at 90 min in data set [1] of more than 200 µg/mL. Also, the IC50 at 48 hours in data set [2] is more than 200 µg/mL.

Take `CC[C@H](C)[C@H](NC(=O)[C@H](CCCCN)NC(=O)[C@H](CCCCN)NC(=O)CNC(=O)[C@H](CCCCN)NC(=O)[C@]1(C)CCCC=CCCC[C@](C)(NC(=O)CN)C(=O)N[C@@H](Cc2ccccc2)C(=O)N[C@@H](CO)C(=O)N[C@@H](CCCCN)C(=O)N1)C(=O)N[C@@H](CCCCN)C(=O)N[C@@H](CC(N)=O)C(=O)N[C@@H](CC(C)C)C(=O)N[C@@H](CC(C)C)C(=O)N[C@@]1(C)CCCC=CCCC[C@@](C)(C(=O)NCC(N)=O)NC(=O)[C@H](CC(C)C)NC(=O)CNC(=O)[C@H](CO)NC1=O` [compound 36] (H-G[S5]FSK[S5]KGKKIKNLL[S5]SGL[S5]G-NH2; staple 2-6, 16-20): in data set [1], the IC50 at 90 min was determined as 63 µg/mL (≈ 27.7 µM). This molecule had an IC50 at 48 hours in data set [2] of 67 µg/mL (≈ 29.5 µM).

In data set [1], `CC[C@H](C)[C@H](NC(=O)[C@H](CCCCN)NC(=O)[C@H](CCCCN)NC(=O)CNC(=O)[C@H](CCCCN)NC(=O)[C@]1(C)CCCC=CCCC[C@](C)(NC(=O)CN)C(=O)N[C@@H](Cc2ccccc2)C(=O)N[C@@H](CO)C(=O)N[C@@H](CCCCN)C(=O)N1)C(=O)N[C@@H](CCCCN)C(=O)N[C@@H](CC(N)=O)C(=O)N[C@@H](CC(C)C)C(=O)N[C@@]1(C)CCCC=CCCC[C@@](C)(C(=O)N[C@@H](CCCCN)C(=O)NCC(N)=O)NC(=O)CNC(=O)[C@H](CO)NC(=O)[C@H](CCCCN)NC1=O` [compound 31] (H-G[S5]FSK[S5]KGKKIKNL[S5]KSG[S5]KG-NH2; staple 2-6, 15-19) showed an IC50 at 90 min of 116 µg/mL (≈ 50.3 µM). Moreover, in data set [2], the IC50 at 48 hours stood at 86 µg/mL (≈ 37.3 µM).

The molecule `CC[C@H](C)[C@@H]1NC(=O)[C@@](C)(NC(=O)[C@H](CC(C)C)NC(=O)[C@H](CC(N)=O)NC(=O)[C@H](CCCCN)NC(=O)[C@H](CC(C)C)NC(=O)[C@H](CCCCN)NC(=O)[C@H](CCCCN)NC(=O)CNC(=O)[C@H](C)NC(=O)[C@]2(C)CCCC=CCCC[C@](C)(NC(=O)CN)C(=O)N[C@@H](CCCCN)C(=O)N[C@@H](CO)C(=O)N[C@@H](CCCCN)C(=O)N2)CCCC=CCCC[C@@](C)(C(=O)N[C@@H](CCCCN)C(=O)N[C@@H](CC(N)=O)C(N)=O)NC(=O)CNC(=O)[C@H](CO)NC1=O` [compound 9] (H-G[S5]KSK[S5]AGKKLKNL[S5]ISG[S5]KN-NH2; staple 2-6, 15-19) gave an IC50 at 90 min in data set [1] of 184 µg/mL (≈ 81 µM). For the same molecule, in data set [2], the IC50 at 48 hours was 107 µg/mL (≈ 47.1 µM).

Molecule `CC[C@H](C)[C@@H]1NC(=O)[C@@](C)(NC(=O)[C@H](CC(C)C)NC(=O)[C@H](CC(N)=O)NC(=O)[C@H](CCCCN)NC(=O)[C@@H](NC(=O)[C@H](CCCCN)NC(=O)[C@H](CCCCN)NC(=O)CNC(=O)[C@H](CCCCN)NC(=O)[C@]2(C)CCCC=CCCC[C@](C)(NC(=O)CN)C(=O)N[C@@H](CCCCN)C(=O)N[C@@H](CO)C(=O)N[C@@H](CCCCN)C(=O)N2)C(C)C)CCCC=CCCC[C@@](C)(C(=O)N[C@@H](CCCCN)C(=O)NCC(N)=O)NC(=O)CNC(=O)[C@H](CO)NC1=O` [compound 8] (H-G[S5]KSK[S5]KGKKVKNL[S5]ISG[S5]KG-NH2; staple 2-6, 15-19) displayed an IC50 at 90 min in data set [1] of more than 200 µg/mL. In addition, the IC50 at 48 hours in data set [2] is more than 200 µg/mL.

With `CC[C@H](C)[C@H](NC(=O)[C@H](CCCCN)NC(=O)[C@H](CCCCN)NC(=O)CNC(=O)[C@H](CCCCN)NC(=O)[C@]1(C)CCCC=CCCC[C@](C)(NC(=O)CN)C(=O)N[C@@H](CCCCN)C(=O)N[C@@H](CO)C(=O)N[C@@H](CCCCN)C(=O)N1)C(=O)N[C@@H](CCCCN)C(=O)N[C@@H](CC(N)=O)C(=O)N[C@@H](CC(C)C)C(=O)N[C@@]1(C)CCCC=CCCC[C@@](C)(C(=O)N[C@@H](CCCCN)C(=O)N[C@@H](CC(N)=O)C(N)=O)NC(=O)CNC(=O)[C@H](CO)NC(=O)[C@H]([C@@H](C)CC)NC1=O` [compound 17] (H-G[S5]KSK[S5]KGKKIKNL[S5]ISG[S5]KN-NH2; staple 2-6, 15-19), in data set [1], the IC50 at 90 min turned out to be 325 µg/mL (≈ 140 µM). In data set [2], this molecule gave an IC50 at 48 hours of 172 µg/mL (≈ 73.9 µM).

`CC[C@H](C)[C@H](NC(=O)[C@H](CCCCN)NC(=O)[C@H](CCCCN)NC(=O)CNC(=O)[C@H](CCCCN)NC(=O)[C@]1(C)CCCC=CCCC[C@](C)(NC(=O)CN)C(=O)N[C@@H](Cc2ccccc2)C(=O)N[C@@H](CO)C(=O)N[C@@H](CCCCN)C(=O)N1)C(=O)N[C@@H](CCCCN)C(=O)N[C@@H](CC(N)=O)C(=O)N[C@@H](CC(C)C)C(=O)N[C@@H](CC(C)C)C(=O)N[C@@]1(C)CCCC=CCCC[C@@](C)(C(=O)N[C@@H](CCCCN)C(N)=O)NC(=O)[C@H](CC(C)C)NC(=O)CNC(=O)[C@H](CO)NC1=O` [compound 38] (H-G[S5]FSK[S5]KGKKIKNLL[S5]SGL[S5]K-NH2; staple 2-6, 16-20) had an IC50 at 90 min in data set [1] of 51 µg/mL (≈ 21.7 µM). Also, in data set [2], the IC50 at 48 hours was determined as 54 µg/mL (≈ 23 µM).

The term IC50 denotes the midpoint of a concentration-inhibition curve. A high value points to a need for much substance.
